In ChEMBL document CHEMBL4316588, “Design, Synthesis, and Biological Evaluation of Novel DNA Gyrase-Inhibiting Spiropyrimidinetriones as Potent Antibiotics for Treatment of Infections Caused by Multidrug-Resistant Gram-Positive Bacteria” (J Med Chem, 2019):
≈ marks a conversion by molar mass, not a printed value.

What was measured:
Cytochrome P450 3A4 [1] = molecular target: T1, Cytochrome P450 3A4 (Homo sapiens, UniProt P08684); experiment: Inhibition of CYP3A4 in human liver microsomes using testosterone as substrate preincubated for 10 mins followed by NADPH addition and measured for 15 mins by LC-MS/MS analysis; assay type: ADME
[2] = AUCt in CD1 mouse at 10 mg/kg, po by LC-MS/MS analysis; assay type: ADME, organism-based; conditions: in vivo
[3] = AUCt in Beagle dog at 5 mg/kg, po by LC-MS/MS analysis; assay type: ADME, organism-based, Canis lupus familiaris; conditions: in vivo
[4] = Cmax in Sprague-Dawley rat at 10 mg/kg, po by LC-MS/MS analysis; assay type: ADME, organism-based; design: dose 10 mg/kg, route oral; conditions: in vivo
[5] = Elimination half life in Sprague-Dawley rat at 10 mg/kg, iv by LC-MS/MS analysis; assay type: ADME, organism-based; conditions: in vivo, read-out: beta t1/2 (converted)
[6] = Cmax in Beagle dog at 5 mg/kg, po by LC-MS/MS analysis; assay type: ADME, organism-based, Canis lupus familiaris; design: dose 5 mg/kg, route oral; conditions: in vivo
[7] = Solubility of the compound in water incubated at 37 degC for 24 hrs by LC/MS/MS analysis; assay type: physicochemical
Cytochrome P450 1A2 = molecular target: T2, Cytochrome P450 1A2 (Homo sapiens, UniProt P05177); experiment: Inhibition of CYP1A2 in human liver microsomes using phenacetin as substrate preincubated for 10 mins followed by NADPH addition and measured for 15 mins by LC-MS/MS analysis; assay type: ADME
T2 sequence (P05177 whole entry): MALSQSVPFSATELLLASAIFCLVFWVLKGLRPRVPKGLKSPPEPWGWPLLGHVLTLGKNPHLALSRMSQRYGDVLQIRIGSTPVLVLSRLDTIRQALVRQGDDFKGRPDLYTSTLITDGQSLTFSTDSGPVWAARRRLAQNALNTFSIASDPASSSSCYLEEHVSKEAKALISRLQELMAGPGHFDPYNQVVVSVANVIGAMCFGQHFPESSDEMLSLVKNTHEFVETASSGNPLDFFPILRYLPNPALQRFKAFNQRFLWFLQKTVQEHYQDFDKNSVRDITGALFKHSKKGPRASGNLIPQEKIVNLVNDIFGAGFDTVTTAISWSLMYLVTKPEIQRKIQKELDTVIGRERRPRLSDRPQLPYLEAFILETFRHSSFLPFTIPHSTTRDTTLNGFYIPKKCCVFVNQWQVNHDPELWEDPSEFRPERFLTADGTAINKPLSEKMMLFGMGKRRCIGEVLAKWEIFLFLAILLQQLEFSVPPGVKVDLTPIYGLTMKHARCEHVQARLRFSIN

Staphylococcus aureus [8] = experiment: Antibacterial activity against methicillin-resistant Staphylococcus aureus infected in Kunming mouse dosed subcutaneously at 0.5 and 4.0 hrs postinfection and measured at 7 to 14 days post treatment by Bliss method; assay type: functional; conditions: sc
[9] = molecular target: Voltage-gated inwardly rectifying potassium channel KCNH2 (Homo sapiens, UniProt Q12809); experiment: Inhibition of human ERG expressed in CHO cells in at -80 mV holding potential by automated Qpatch clamp assay; assay type: cell-based
[10] = Elimination half life in Beagle dog at 2.5 mg/kg, iv by LC-MS/MS analysis; assay type: ADME, organism-based, Canis lupus familiaris; conditions: in vivo, read-out: beta t1/2 (converted)
[11] = Cmax in Sprague-Dawley rat at 100 mg/kg, po by LC-MS/MS analysis; assay type: ADME, organism-based; design: dose 100 mg/kg, route oral; conditions: in vivo
Staphylococcus aureus [12] = experiment: Antibacterial activity against methicillin-sensitive Staphylococcus aureus after 18 to 20 hrs by CLSI-protocol based broth microdilution method; assay type: functional; conditions: Staphylococcus aureus; read-out: MIC
[13] = Oral bioavailability in Sprague-Dawley rat at 10 mg/kg by LC-MS/MS analysis; assay type: ADME, organism-based; conditions: in vivo
Cytochrome P450 3A4 [14] = molecular target: T1, Cytochrome P450 3A4; experiment: Inhibition of CYP3A4 in human liver microsomes using midazolam as substrate preincubated for 10 mins followed by NADPH addition and measured for 15 mins by LC-MS/MS analysis; assay type: ADME
[15] = Volume of distribution at steady state in Sprague-Dawley rat at 10 mg/kg, iv by LC-MS/MS analysis; assay type: ADME, organism-based; conditions: in vivo, read-out: Vdss
[16] = Elimination half life in Beagle dog at 5 mg/kg, po by LC-MS/MS analysis; assay type: ADME, organism-based, Canis lupus familiaris; conditions: in vivo, read-out: beta t1/2 (converted)
[17] = molecular target: DNA topoisomerase 2-alpha (Homo sapiens, UniProt P11388); experiment: Inhibition of human topoisomerase-2alpha using catenated DNA as substrate after 30 mins by ethidium bromide-based gel electrophoresis
[18] = Oral bioavailability in Sprague-Dawley rat at 100 mg/kg by LC-MS/MS analysis; assay type: ADME, organism-based; conditions: in vivo
[19] = Volume of distribution at steady state in Beagle dog at 2.5 mg/kg, iv by LC-MS/MS analysis; assay type: ADME, organism-based, Canis lupus familiaris; conditions: in vivo, read-out: Vdss
Cytochrome P450 2D6 = Cytochrome P450 2D6 (Homo sapiens, UniProt P10635); experiment: Inhibition of CYP2D6 in human liver microsomes using dextromethorphan as substrate preincubated for 10 mins followed by NADPH addition and measured for 15 mins by LC-MS/MS analysis; assay type: ADME
[20] = AUCt in Beagle dog at 2.5 mg/kg, iv by LC-MS/MS analysis; assay type: ADME, organism-based, Canis lupus familiaris; conditions: in vivo
Cytochrome P450 2C19 = Cytochrome P450 2C19 (Homo sapiens, UniProt P33261); experiment: Inhibition of CYP2C19 in human liver microsomes using mephenytoin as substrate preincubated for 10 mins followed by NADPH addition and measured for 15 mins by LC-MS/MS analysis; assay type: ADME
[21] = AUCt in Sprague-Dawley rat at 100 mg/kg, po by LC-MS/MS analysis; assay type: ADME, organism-based; conditions: in vivo
[22] = Solubility of the compound in pH 6.8 intestinal juice incubated at 37 degC for 24 hrs by LC/MS/MS analysis; assay type: physicochemical
Neisseria gonorrhoeae = experiment: Antibacterial activity against Neisseria gonorrhoeae after 18 to 20 hrs by CLSI-protocol based agar microdilution method; assay type: functional
[23] = Elimination half life in CD1 mouse at 10 mg/kg, po by LC-MS/MS analysis; assay type: ADME, organism-based; conditions: in vivo, read-out: beta t1/2 (converted)
Streptococcus pyogenes = experiment: Antibacterial activity against Streptococcus pyogenes after 18 to 20 hrs by CLSI-protocol based broth microdilution method; assay type: functional
[24] = Solubility of the compound in pH 1.2 gastric juice incubated at 37 degC for 24 hrs by LC/MS/MS analysis; assay type: physicochemical
[25] = Clearance in Sprague-Dawley rat at 10 mg/kg, iv by LC-MS/MS analysis; assay type: ADME, organism-based; conditions: in vivo
[26] = Elimination half life in Sprague-Dawley rat at 10 mg/kg, po by LC-MS/MS analysis; assay type: ADME, organism-based; conditions: in vivo, read-out: beta t1/2 (converted)
[27] = AUCt in Sprague-Dawley rat at 10 mg/kg, iv by LC-MS/MS analysis; assay type: ADME, organism-based; conditions: in vivo
[28] = Clearance in Beagle dog at 2.5 mg/kg, iv by LC-MS/MS analysis; assay type: ADME, organism-based, Canis lupus familiaris; conditions: in vivo
DNA gyrase = DNA gyrase (Staphylococcus aureus, UniProt P0A0K8+P20831)
Description: Inhibition of Staphylococcus aureus DNA gyrase supercoiling activity using relaxed pHOT-1 DNA as substrate after 60 mins by ethidium bromide-based gel electrophoresis

[29] = AUCt in Sprague-Dawley rat at 10 mg/kg, po by LC-MS/MS analysis; assay type: ADME, organism-based; conditions: in vivo
[30] = Oral bioavailability in Beagle dog at 5 mg/kg by LC-MS/MS analysis; assay type: ADME, organism-based, Canis lupus familiaris; conditions: in vivo
[31] = MRT in CD1 mouse at 10 mg/kg, po by LC-MS/MS analysis; assay type: ADME, organism-based; conditions: in vivo
Staphylococcus aureus [32] = experiment: Antibacterial activity against methicillin-sensitive Staphylococcus aureus infected in Kunming mouse dosed subcutaneously at 0.5 and 4.0 hrs postinfection and measured at 7 to 14 days post treatment by Bliss method; assay type: functional; conditions: sc
[33] = Elimination half life in Sprague-Dawley rat at 100 mg/kg, po by LC-MS/MS analysis; assay type: ADME, organism-based; conditions: in vivo, read-out: beta t1/2 (converted)
[34] = Cmax in CD1 mouse at 10 mg/kg, po by LC-MS/MS analysis; assay type: ADME, organism-based; design: dose 10 mg/kg, route oral; conditions: in vivo
Cytochrome P450 2C9 = Cytochrome P450 2C9 (Homo sapiens, UniProt P11712); experiment: Inhibition of CYP2C9 in human liver microsomes using tolbutamide as substrate preincubated for 10 mins followed by NADPH addition and measured for 15 mins by LC-MS/MS analysis; assay type: ADME
[35] = Tmax in CD1 mouse at 10 mg/kg, po by LC-MS/MS analysis; assay type: ADME, organism-based; conditions: in vivo
[36] = tested on: Staphylococcus epidermidis; experiment: Antibacterial activity against methicillin-sensitive Staphylococcus epidermidis after 18 to 20 hrs by CLSI-protocol based broth microdilution method; assay type: functional
[37] = tested on: Staphylococcus epidermidis; experiment: Antibacterial activity against methicillin-resistant Staphylococcus epidermidis after 18 to 20 hrs by CLSI-protocol based broth microdilution method; assay type: functional
Streptococcus pneumoniae = experiment: Antibacterial activity against penicillin-resistant Streptococcus pneumoniae after 18 to 20 hrs by CLSI-protocol based broth microdilution method; assay type: functional
Staphylococcus aureus [38] = experiment: Antibacterial activity against methicillin-resistant Staphylococcus aureus after 18 to 20 hrs by CLSI-protocol based broth microdilution method; assay type: functional
[39] = Streptococcus pyogenes, read-out: MIC

DNA topoisomerase 2-alpha, sequence (P11388 whole entry): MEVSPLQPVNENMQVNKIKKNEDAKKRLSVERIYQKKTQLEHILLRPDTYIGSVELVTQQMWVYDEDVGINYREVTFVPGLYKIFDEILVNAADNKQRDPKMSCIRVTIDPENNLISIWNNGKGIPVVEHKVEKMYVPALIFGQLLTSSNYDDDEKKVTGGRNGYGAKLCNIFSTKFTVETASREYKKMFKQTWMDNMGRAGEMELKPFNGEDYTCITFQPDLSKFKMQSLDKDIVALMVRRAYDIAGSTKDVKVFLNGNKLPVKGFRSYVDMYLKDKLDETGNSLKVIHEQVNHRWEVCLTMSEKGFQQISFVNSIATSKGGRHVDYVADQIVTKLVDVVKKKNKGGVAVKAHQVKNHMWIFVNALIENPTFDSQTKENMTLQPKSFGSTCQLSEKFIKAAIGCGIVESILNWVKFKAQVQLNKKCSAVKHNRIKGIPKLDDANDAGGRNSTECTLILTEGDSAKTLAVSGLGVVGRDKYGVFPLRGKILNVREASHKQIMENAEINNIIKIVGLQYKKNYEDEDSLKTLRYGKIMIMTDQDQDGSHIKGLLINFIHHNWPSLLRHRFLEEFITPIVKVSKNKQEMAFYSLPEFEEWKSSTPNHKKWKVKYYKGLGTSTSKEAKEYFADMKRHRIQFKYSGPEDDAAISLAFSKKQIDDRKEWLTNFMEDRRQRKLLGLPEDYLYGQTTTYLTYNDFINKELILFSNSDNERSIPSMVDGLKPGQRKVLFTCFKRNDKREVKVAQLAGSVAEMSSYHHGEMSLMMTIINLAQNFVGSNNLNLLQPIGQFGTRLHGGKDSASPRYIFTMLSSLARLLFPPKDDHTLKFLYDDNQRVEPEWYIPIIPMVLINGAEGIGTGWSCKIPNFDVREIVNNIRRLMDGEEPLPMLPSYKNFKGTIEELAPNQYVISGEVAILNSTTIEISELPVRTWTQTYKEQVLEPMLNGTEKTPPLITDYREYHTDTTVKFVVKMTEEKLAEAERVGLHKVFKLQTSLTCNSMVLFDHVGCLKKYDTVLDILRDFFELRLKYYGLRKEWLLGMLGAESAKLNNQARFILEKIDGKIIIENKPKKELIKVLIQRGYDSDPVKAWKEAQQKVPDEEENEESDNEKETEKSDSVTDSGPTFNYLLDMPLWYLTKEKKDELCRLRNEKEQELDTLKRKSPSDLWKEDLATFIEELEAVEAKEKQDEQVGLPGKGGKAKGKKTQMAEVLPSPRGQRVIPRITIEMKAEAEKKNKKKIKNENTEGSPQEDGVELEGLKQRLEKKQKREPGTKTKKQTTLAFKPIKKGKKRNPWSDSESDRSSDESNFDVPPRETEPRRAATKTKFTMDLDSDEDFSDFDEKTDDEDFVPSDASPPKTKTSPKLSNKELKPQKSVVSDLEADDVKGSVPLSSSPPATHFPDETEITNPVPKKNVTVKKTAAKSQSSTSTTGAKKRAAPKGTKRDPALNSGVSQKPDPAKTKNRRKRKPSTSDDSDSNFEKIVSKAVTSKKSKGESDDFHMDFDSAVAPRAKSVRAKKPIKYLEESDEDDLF
DNA gyrase, sequence (P0A0K8 whole entry): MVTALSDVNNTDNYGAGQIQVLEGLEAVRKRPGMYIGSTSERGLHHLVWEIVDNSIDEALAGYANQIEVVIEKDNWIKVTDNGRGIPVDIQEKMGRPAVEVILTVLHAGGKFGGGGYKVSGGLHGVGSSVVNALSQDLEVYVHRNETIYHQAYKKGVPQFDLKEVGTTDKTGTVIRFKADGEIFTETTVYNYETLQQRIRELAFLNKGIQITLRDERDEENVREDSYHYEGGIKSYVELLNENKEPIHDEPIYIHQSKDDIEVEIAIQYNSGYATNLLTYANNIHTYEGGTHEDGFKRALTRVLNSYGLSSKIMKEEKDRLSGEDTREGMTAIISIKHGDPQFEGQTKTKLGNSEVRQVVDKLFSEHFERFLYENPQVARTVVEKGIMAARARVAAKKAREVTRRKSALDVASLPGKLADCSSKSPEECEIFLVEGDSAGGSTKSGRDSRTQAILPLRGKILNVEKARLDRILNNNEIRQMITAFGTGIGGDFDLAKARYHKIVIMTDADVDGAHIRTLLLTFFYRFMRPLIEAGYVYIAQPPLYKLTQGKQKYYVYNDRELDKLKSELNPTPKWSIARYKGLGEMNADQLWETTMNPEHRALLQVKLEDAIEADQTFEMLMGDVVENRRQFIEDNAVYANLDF
DNA gyrase, sequence (P20831 whole entry): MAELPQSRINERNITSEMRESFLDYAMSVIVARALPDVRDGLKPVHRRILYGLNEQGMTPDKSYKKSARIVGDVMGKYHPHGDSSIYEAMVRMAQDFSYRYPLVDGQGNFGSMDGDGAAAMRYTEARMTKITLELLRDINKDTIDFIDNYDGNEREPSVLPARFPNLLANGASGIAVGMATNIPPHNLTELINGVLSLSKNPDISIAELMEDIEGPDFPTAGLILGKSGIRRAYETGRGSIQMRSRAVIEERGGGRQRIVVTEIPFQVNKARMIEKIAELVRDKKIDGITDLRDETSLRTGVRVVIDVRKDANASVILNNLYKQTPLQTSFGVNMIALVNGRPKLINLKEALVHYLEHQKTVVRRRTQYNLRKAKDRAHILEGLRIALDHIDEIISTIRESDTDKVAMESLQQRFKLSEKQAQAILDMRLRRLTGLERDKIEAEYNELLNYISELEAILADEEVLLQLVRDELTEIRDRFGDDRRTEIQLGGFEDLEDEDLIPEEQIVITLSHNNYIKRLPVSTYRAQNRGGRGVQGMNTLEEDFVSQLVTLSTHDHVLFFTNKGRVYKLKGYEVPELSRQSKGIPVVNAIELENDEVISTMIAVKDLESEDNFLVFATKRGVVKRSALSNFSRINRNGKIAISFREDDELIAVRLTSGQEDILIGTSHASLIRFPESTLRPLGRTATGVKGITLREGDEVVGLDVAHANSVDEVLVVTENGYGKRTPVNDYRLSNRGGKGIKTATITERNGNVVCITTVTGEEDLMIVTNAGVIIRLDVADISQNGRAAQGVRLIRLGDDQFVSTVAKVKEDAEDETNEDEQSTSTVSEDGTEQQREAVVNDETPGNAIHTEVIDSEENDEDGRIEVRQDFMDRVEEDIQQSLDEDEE
Voltage-gated inwardly rectifying potassium channel KCNH2, sequence (Q12809 whole entry): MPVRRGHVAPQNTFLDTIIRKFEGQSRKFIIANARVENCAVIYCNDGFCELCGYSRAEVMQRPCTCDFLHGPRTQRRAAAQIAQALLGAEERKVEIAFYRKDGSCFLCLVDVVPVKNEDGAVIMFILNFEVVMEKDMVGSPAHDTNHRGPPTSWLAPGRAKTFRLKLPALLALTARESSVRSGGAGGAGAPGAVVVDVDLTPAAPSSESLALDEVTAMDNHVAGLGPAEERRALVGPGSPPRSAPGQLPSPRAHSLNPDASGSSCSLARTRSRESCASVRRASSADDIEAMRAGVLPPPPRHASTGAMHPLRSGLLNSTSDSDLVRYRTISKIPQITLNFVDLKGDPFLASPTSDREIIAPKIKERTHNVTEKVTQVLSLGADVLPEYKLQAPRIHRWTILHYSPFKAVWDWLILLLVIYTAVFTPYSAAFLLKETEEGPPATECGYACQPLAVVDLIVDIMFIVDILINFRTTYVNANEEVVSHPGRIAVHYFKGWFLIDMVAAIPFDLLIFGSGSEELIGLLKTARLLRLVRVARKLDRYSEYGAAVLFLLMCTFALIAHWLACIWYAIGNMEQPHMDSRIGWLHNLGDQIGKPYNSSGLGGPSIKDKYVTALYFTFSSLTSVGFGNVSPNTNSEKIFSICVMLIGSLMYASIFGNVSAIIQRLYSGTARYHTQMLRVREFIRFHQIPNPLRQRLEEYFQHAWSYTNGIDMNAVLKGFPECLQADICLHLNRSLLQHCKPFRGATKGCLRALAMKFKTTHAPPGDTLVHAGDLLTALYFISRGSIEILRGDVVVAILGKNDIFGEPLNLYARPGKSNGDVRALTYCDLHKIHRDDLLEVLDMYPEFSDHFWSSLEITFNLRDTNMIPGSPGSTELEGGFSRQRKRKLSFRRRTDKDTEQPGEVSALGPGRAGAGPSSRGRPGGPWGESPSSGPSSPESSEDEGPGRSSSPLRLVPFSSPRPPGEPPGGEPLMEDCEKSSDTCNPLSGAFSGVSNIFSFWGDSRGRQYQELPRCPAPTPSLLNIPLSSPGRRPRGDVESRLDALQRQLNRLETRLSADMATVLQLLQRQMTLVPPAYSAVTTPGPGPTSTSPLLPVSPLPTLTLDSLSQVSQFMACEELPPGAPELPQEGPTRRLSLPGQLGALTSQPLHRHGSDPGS
T1 sequence (P08684 whole entry): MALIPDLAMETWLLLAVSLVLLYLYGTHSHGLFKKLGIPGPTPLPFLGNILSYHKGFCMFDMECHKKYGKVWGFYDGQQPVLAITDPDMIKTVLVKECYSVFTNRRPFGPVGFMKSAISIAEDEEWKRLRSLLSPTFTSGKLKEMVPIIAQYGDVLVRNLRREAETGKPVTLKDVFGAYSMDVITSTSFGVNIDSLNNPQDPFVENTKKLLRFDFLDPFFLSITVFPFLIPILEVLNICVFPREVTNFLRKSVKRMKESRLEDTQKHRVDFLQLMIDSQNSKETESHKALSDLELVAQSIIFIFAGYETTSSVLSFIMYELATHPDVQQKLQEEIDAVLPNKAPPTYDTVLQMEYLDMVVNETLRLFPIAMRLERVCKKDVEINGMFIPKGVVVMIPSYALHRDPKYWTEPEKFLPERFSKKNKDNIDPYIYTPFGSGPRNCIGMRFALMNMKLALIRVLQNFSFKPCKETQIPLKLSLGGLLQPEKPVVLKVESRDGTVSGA

## C[C@@H]1CN2c3c(cc4c(N5CC6(CC6)OC5=O)noc4c3F)CC3(C(=O)NC(=O)NC3=O)[C@H]2[C@H](C)O1
Cytochrome P450 3A4 [1]
  IC50: > 25 µM
[2]
  AUC(0-t): 24200 ng·h/mL
[3]
  AUC(0-t): 17500 ng·h/mL
[4]
  Cmax: 2260 ng/mL
[5]
  half-life: 3.82 h
[6]
  Cmax: 2860 ng/mL
[7]
  solubility at 24 h: 277 µM (≈ 138 µg/mL)
Cytochrome P450 1A2
  IC50: 13 µM
Staphylococcus aureus [8]
  ED50: 3.87 mg/kg
[9]
  IC50: > 40 µM
[10]
  half-life: 3.49 h
[11]
  Cmax: 35400 ng/mL
Staphylococcus aureus [12]
  MIC: ≤ 0.03 µg/mL
[13]
  bioavailability: 22.6%
Cytochrome P450 3A4 [14]
  IC50: > 25 µM
[15]
  Vd: 0.482 L/kg
[16]
  half-life: 3.65 h
[17]
  IC50: > 200 µM
[18]
  bioavailability: 45.8%
[19]
  Vd: 1 L/kg
Cytochrome P450 2D6
  IC50: > 25 µM
[20]
  AUC(0-t): 9100 ng·h/mL
Cytochrome P450 2C19
  IC50: > 25 µM
[21]
  AUC(0-t): 478000 ng·h/mL
[22]
  solubility at 24 h: 204 µM (≈ 102 µg/mL)
Neisseria gonorrhoeae
  MIC50: 0.06 µg/mL (≈ 0.12 µM)
  MIC90: 0.125 µg/mL (≈ 0.25 µM)
[23]
  half-life: 6.2 h
Streptococcus pyogenes
  MIC: <0.03 µg/mL
[24]
  solubility at 24 h: 151 µM (≈ 75.4 µg/mL)
[25]
  clearance: 1.57 mL/min/kg
[26]
  half-life: 3.71 h
[27]
  AUC(0-t): 104000 ng·h/mL
[28]
  clearance: 4.91 mL/min/kg
DNA gyrase
  IC50: 7.8 µM
[29]
  AUC(0-t): 23600 ng·h/mL
[30]
  bioavailability: 96.6%
[31]
  MRT: 8.94 h
Staphylococcus aureus [32]
  ED50: 8.37 mg/kg
[33]
  half-life: 5.58 h
[34]
  Cmax: 2580 ng/mL
Cytochrome P450 2C9
  IC50: > 25 µM
[35]
  Tmax: 2.67 h

## C[C@@H]1CN2c3c(cc4c(N5C[C@H](C)SC5=O)noc4c3F)CC3(C(=O)NC(=O)NC3=O)[C@H]2[C@H](C)O1
[2]
  AUC(0-t): 22500 ng·h/mL
[7]
  solubility at 24 h: 10.2 µM (≈ 5.14 µg/mL)
[9]
  IC50: > 40 µM
[17]
  IC50: > 200 µM
[36]
  MIC: < 0.03 µg/mL
[18]
  bioavailability: 52.7%
[21]
  AUC(0-t): 452000 ng·h/mL
[22]
  solubility at 24 h: 11.3 µM (≈ 5.69 µg/mL)
Neisseria gonorrhoeae
  MIC50: 0.06 µg/mL (≈ 0.119 µM)
  MIC90: 0.125 µg/mL (≈ 0.248 µM)
[23]
  half-life: 7.68 h
Streptococcus pyogenes; [39]
  MIC: < 0.03 µg/mL
[24]
  solubility at 24 h: 9.4 µM (≈ 4.73 µg/mL)
DNA gyrase
  IC50: 12.6 µM
[31]
  MRT: 11.4 h
Staphylococcus aureus [32]
  ED50: 9.59 mg/kg
[37]
  MIC: < 0.03 µg/mL
[33]
  half-life: 8.63 h
Streptococcus pneumoniae
  MIC: < 0.03 µg/mL
[34]
  Cmax: 2080 ng/mL
[35]
  Tmax: 1.33 h

## C[C@@H]1CN2c3c(cc4c(N5CC6(CCC6)OC5=O)noc4c3F)CC3(C(=O)NC(=O)NC3=O)[C@H]2[C@H](C)O1
Staphylococcus aureus [12]
  MIC: 0.125 to 0.25 µg/mL (≈ 0.243 to 0.487 µM)
[17]
  IC50: > 200 µM
[36]
  MIC: 0.06 to 0.25 µg/mL (≈ 0.117 to 0.487 µM)
Streptococcus pyogenes; [39]
  MIC: 0.25 to 0.5 µg/mL (≈ 0.487 to 0.974 µM)
Staphylococcus aureus [38]
  MIC: 0.06 to 1 µg/mL (≈ 0.117 to 1.95 µM)
DNA gyrase
  IC50: 15.6 µM
[37]
  MIC: 0.03 to 0.25 µg/mL (≈ 0.0584 to 0.487 µM)
Streptococcus pneumoniae
  MIC: 0.25 to 1 µg/mL (≈ 0.487 to 1.95 µM)
